The source of these data is ChEMBL document CHEMBL1201862, “PubChem BioAssay data set” (2004).

Holding throughout (test): NCI anticancer screen, dose series, 48 h
Test [1] relates to M14.
Test [2] concerns A549.
The subject of test [3] is PC-3.
The test system of test [4] is MDA-MB-231.
For test [5], the system named is HOP-92.
The test system of test [6] is A498.
Test [7] relates to OVCAR-3.
Test [8] has as its system T47D.
Test [9] concerns RPMI-8226.
In test [10] the test system is HCC 2998.
The test system of test [11] is SNB-19.
Test [12] has as its system NCI-H23.
In test [13] the test system is CAKI-1.
Test [14] has as its system U-251.
Test [15] relates to UACC-257.
Test [16] deals with NCI/ADR-RES.
Test [17] deals with HT-29.
In test [18] the test system is TK-10.
The subject of test [19] is MDA-N.
For test [20], the system named is UO-31.

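The compound was tested at five concentrations on cells cultured in 96-well plates, with a 48-hour exposure period. GI50 marks 50% less growth.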 The source made the active and inactive calls. Cut-off read from the data, not from the text of the source: active = GI50 up to about 1.1 µM and inactive = higher.

Regarding `Nc1c2c(nc3ccccc13)CCCc1ccccc1-2`, the GI50 in test [1] is 7.91 µM (inactive); in test [2], 16.3 µM (inactive); in test [3], 14.3 µM (inactive); in test [4], 5.38 µM (inactive); in [5], 10.1 µM (inactive); in test [6], 8.43 µM (inactive). The GI50 in test [7] was 27 µM (inactive); in test [8] it was 11 µM (inactive); in [9], 5.32 µM (inactive); in [10], 1.83 µM (inactive); in test [11], 11.3 µM (inactive); in test [12], 16.3 µM (inactive). The GI50 is 15.9 µM (inactive) in [13]; 11.3 µM (inactive) in test [14]; 12.7 µM (inactive) in test [15]; 20.3 µM (inactive) in [16]; 4.53 µM (inactive) in [17]; 6.08 µM (inactive) in [18]. Besides, the GI50 in test [19] was 4.17 µM (inactive); in test [20], 10.5 µM (inactive).
`CC(=O)Nc1cc2cc(N)ccc2oc1=O`: the GI50 in test [1], in test [2], in [3], in test [4], in test [5] and in test [6] was > 100 µM (inactive) each time. For the same compound, the GI50 in test [7], in [8], in test [9], in test [10], in [11] and in test [12] was > 100 µM (inactive) throughout. Besides, the GI50 in [13], in [14], in [15], in test [16], in test [17] and in [18] was > 100 µM (inactive) in each case. Also, the GI50 in test [19] and in test [20] was > 100 µM (inactive) throughout.
With `CC1=C(C)C(=O)C(C2=C(C3=CC(=O)C(C)=C(C)C3=O)C(=O)c3ccccc3C2=O)=CC1=O`, the GI50 in test [1] was 1.82 µM (inactive); in test [2], 5.21 µM (inactive); in test [3], 2.61 µM (inactive); in test [4] it was 2.37 µM (inactive); in test [5] it was 2.55 µM (inactive); in test [6], 8.04 µM (inactive). Moreover, the GI50 was 2.68 µM (inactive) in [7]; 2.96 µM (inactive) in [8]; 1.3 µM (inactive) in test [9]; 4.66 µM (inactive) in test [10]; 11.2 µM (inactive) in test [11]; 2.79 µM (inactive) in test [12]. Besides, the GI50 in [13] was 2.25 µM (inactive); in [14] it was 3.62 µM (inactive); in test [15], 1.99 µM (inactive); in [16] it was 10.4 µM (inactive); in test [17], 2.2 µM (inactive); in test [18], 6.35 µM (inactive). Further, the GI50 in [19] is 1.91 µM (inactive); in test [20], 1.93 µM (inactive).
With `C=CCNC(=S)N/N=C1\C(=O)N(CN2CCOCC2)c2ccc([N+](=O)[O-])cc21`, the GI50 in test [1] is 17.2 µM (inactive); in [2], 10.4 µM (inactive); in test [3], 24 µM (inactive); in test [4], 39.8 µM (inactive); in [5] it was 13.3 µM (inactive); in test [6], 7.52 µM (inactive). Moreover, the GI50 in test [7] was 24.3 µM (inactive); in test [8], 17 µM (inactive); in test [9], 33 µM (inactive); in [10], 12.9 µM (inactive); in test [11], 21.6 µM (inactive); in test [12], 44.9 µM (inactive). For the same compound, the GI50 in test [13] was 5.19 µM (inactive); in test [14], 18.1 µM (inactive); in test [15] it was 16.6 µM (inactive); in [16] it was 3.74 µM (inactive); in [17], 23.2 µM (inactive); in [18], 5.36 µM (inactive). The GI50 in test [19] was 30.8 µM (inactive); in [20] it was 6.18 µM (inactive).
For `CCCC1NC(C#N)(C#N)C(CCC)NC1(C#N)C#N` (stereo not given), the GI50 in test [1] is 0.126 µM (active); in [2], 14.3 µM (inactive); in test [3] it was 0.318 µM (active); in test [4] it was 27.8 µM (inactive); in [5], 0.488 µM (active); in test [6], 21.7 µM (inactive). Further, the GI50 in test [7] is 0.076 µM (active); in test [8] it was 0.946 µM (active); in [9], < 0.01 µM (active); in test [10], 7.96 µM (inactive); in [11] it was 40.9 µM (inactive); in test [12], 2.49 µM (inactive). In addition, the GI50 in [13] is 0.0573 µM (active); in test [14], 6.46 µM (inactive); in test [15], > 100 µM (inactive); in test [16] it was 0.243 µM (active); in [17], 0.115 µM (active); in [18] it was 1.01 µM (active). For the same compound, the GI50 is 0.285 µM (active) in [19] and 0.0787 µM (active) in test [20].
